Measured values as given in PubChem BioAssay AID1845197 (Molecular Pharmacology Branch, DTP, NCI, 2023).
Where “and” joins values, the source holds several entries; their conditions need not be identical. Identical values can stand only once.

Tested on: 349418-098-R tumor spheroid viability
Assay: Anticancer human tumor 349418-098-R patient-derived lung adenocarcinoma cell line growth inhibition
Details: spheroids with HUVEC and MSC; for viability, T/C: stronger effect = lower value
From the text: Multicellular complex tumor spheroid response to DNA repair inhibitors in combination with DNA-damaging drugs
This study explores the anticancer activities of DNA-damaging drugs and inhibitors of DNA damage repair, both as single agents and in combinations. Complex tumor spheroids comprised of malignant cells, endothelial cells and mesenchymal stem cells served as an in vitro model for human solid tumors. This model system incorporates physiologically relevant features and patient-derived or established malignant cell lines with clinically relevant genetic alterations from many tumor types. Twenty-six patient-derived or established malignant cell lines were evaluated representing sarcoma, melanoma, small cell lung cancer (SCLC), non-small cell lung cancer (NSCLC), as well as bladder, ovarian and pancreatic cancers. The concentration ranges selected for each drug and investigational agent were based upon clinically achievable concentrations if the clinical Cmax of the agent was known.
Compounds. The drugs and compounds olaparib (NSC753686), talazoparib (NSC767125), berzosertib (NSC777718), elimusertib (NSC800525), nedisertib (NSC802822), VX-984 (NSC792969), AZD-1390 (NSC803789), temozolomide (NSC362856), topotecan (NSC609699), trabectedin (NSC813783), staurosporine (NSC755774), and gemcitabine (NSC613327) were obtained from the National Cancer Institute (NCI) Developmental Therapeutics Program Chemical Repository. The FDA-approved anticancer drug set is available from the Developmental Therapeutics Program at https://dtp.cancer.gov/organization/dscb/obtaining/available_plates.htm. […] The stock solutions were prepared in dimethyl sulfoxide (DMSO, Sigma-Aldrich, St. Louis, MO, cat. D2650) at 400-fold the tested concentration and stored at -70 degrees C. Prior to their use, the stock solutions were diluted in fresh medium and the final DMSO concentration in the assay was 0.25% (v/v). All drugs and investigational agents were tested over a range starting from a high concentration at or near the clinical Cmax and decreasing in half-log increments. If the clinical Cmax for an agent had not been determined, the highest concentration tested was 10 microM.
Cell Lines. The patient-derived cancer cell (PDC) lines: 156681-154-R-J1-PDC, 283228-195-R-J1-PDC, 287954-098-R-J1-PDC, 292921-168-R-J2-PDC, 349418-098-R-PDC, 425362-245-T-J1-PDC, 556581-035-R-J1-PDC, and BL0293-F563-PDC were received from the NCI Patient-Derived Models Repository (PDMR, https://pdmr.cancer.gov). The established cell lines HS-SY-2 (RRID:CVCL_8719), MPNST, and SYO-1 (RRID:CVCL_7146) were obtained from the Sloan Kettering Institute. The alveolar soft parts sarcoma cell line ASPS-1 (RRID:CVCL_S738) was established at the NCI and grown from internal seed stocks. The following established cell lines were purchased from the American Type Culture Collection (ATCC, Manassas, VA): G-401 (ATCC, cat. CRL-1441, RRID:CVCL_0270), SW982 (ATCC, cat. HTB-93, RRID:CVCL_1734), VA-ES-BJ (ATCC, cat. CRL-2138, RRID:CVCL_1785), NCI-H719 (ATCC, cat. CRL-5837, RRID:CVCL_1582), NCI-H196 (ATCC, cat. CRL-5823, RRID:CVCL_1509), NCI-H841 (ATCC, cat. CRL-5845, RRID:CVCL_1595), NCI-H1618 (ATCC, cat. CRL-5879, RRID:CVCL_1480), NCI-H1876 (ATCC, cat. CRL-5902, RRID:CVCL_1503), DMS 114 (ATCC, cat. CRL-2066; RRID:CVCL_1174), NCI-H211 (ATCC, cat. CRL-5824; RRID:CVCL_1529), and SW 1271 (ATCC, cat. CRL-2177, RRID:CVCL_1716). The small cell lung cancer cell line COR-L88 was purchased from Sigma-Aldrich (cat. 92031917-1VL, RRID:CVCL_1141). The non-small cell lung cancer cell lines NCI-H226 (RRID:CVCL_1544) and NCI-H322M (RRID:CVCL_1557) were established at the NCI and grown from internal seed stocks. Pooled donor human umbilical vein endothelial cells (HUVEC, Lonza, cat. CC-2519) and human mesenchymal stem cells (hMSC, Lonza, cat. PT-2501) were purchased from Lonza (Walkersville, MD).
Cell Culture. All cells were maintained in an incubator at 37 degrees C and 5% CO2 with 95% humidity. […]
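Also: spheroids exposed to compound for 7 days before measurement.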
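For viability, T/C in this document: percent of vehicle control viability with 100% = DMSO-treated spheroids.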

Which results are given for CC1COCCN1c1cc(-c2ccnn2C)c2ccnc(-c3ccn[nH]3)c2n1 (configuration not stated) + CC[C@@]1(O)C(=O)OCc2c1cc1n(c2=O)Cc2cc3c(CN(C)C)c(O)ccc3nc2-1?
IC50 (curve of first compound, second compound 0.003 µM): 79 nM; IC50 (curve of first compound, second compound 0.00949 µM): < 31.6 nM; IC50 (curve of first compound, second compound 0.03 µM): < 31.6 nM; IC50 (curve of first compound, second compound 0.0949 µM): < 31.6 nM; IC50 (curve of first compound, second compound 0.3 µM): < 31.6 nM; viability, T/C (second compound 0.003 µM, first compound 0.0316 µM): 107%; viability, T/C (second compound 0.003 µM, first compound 0.1 µM): 35.1%; viability, T/C (second compound 0.003 µM, first compound 0.316 µM): 16%; viability, T/C (second compound 0.003 µM, first compound 1 µM): 15%; viability, T/C (second compound 0.003 µM, first compound 3.16 µM): 15.6%; viability, T/C (second compound 0.003 µM, first compound 10 µM): 14%; viability, T/C (second compound 0.00949 µM, first compound 0.0316 µM): 42.4%; viability, T/C (second compound 0.00949 µM, first compound 0.1 µM): 20.4%; viability, T/C (second compound 0.00949 µM, first compound 0.316 µM): 13.6%; viability, T/C (second compound 0.00949 µM, first compound 1 µM): 16.2%; viability, T/C (second compound 0.00949 µM, first compound 3.16 µM): 12.8%; viability, T/C (second compound 0.00949 µM, first compound 10 µM): 12%; viability, T/C (second compound 0.03 µM, first compound 0.0316 µM): 13.5%; viability, T/C (second compound 0.03 µM, first compound 0.1 µM): 11.5%; viability, T/C (second compound 0.03 µM, first compound 0.316 µM): 9.56%; viability, T/C (second compound 0.03 µM, first compound 1 µM): 11.4%; viability, T/C (second compound 0.03 µM, first compound 3.16 µM): 11.6%; viability, T/C (second compound 0.03 µM, first compound 10 µM): 10.8%; viability, T/C (second compound 0.0949 µM, first compound 0.0316 µM): 5.41%; viability, T/C (second compound 0.0949 µM, first compound 0.1 µM): 6.47%; viability, T/C (second compound 0.0949 µM, first compound 0.316 µM): 5.98%; viability, T/C (second compound 0.0949 µM, first compound 1 µM): 6.27%; viability, T/C (second compound 0.0949 µM, first compound 3.16 µM): 7.68%; viability, T/C (second compound 0.0949 µM, first compound 10 µM): 8.39%; viability, T/C (second compound 0.3 µM, first compound 0.0316 µM): 3.23%; viability, T/C (second compound 0.3 µM, first compound 0.1 µM): 2.54%; viability, T/C (second compound 0.3 µM, first compound 0.316 µM): 2.76%; viability, T/C (second compound 0.3 µM, first compound 1 µM): 3.58%; viability, T/C (second compound 0.3 µM, first compound 3.16 µM): 4.37%; viability, T/C (second compound 0.3 µM, first compound 10 µM): 5.17%

Which results are given for CNCc1ccc(-c2cc(-c3nc(-c4ccc(S(=O)(=O)C(C)C)cc4)cnc3N)on2)cc1?
viability, T/C (compound 0.00949 µM): 99.8% and 99.6% and 96.2%; viability, T/C (compound 0.03 µM): 104% and 99.5% and 92.1%; viability, T/C (compound 0.0949 µM): 94.8% and 98.9% and 94.1%; viability, T/C (compound 0.3 µM): 71.1% and 34.7% and 85.6%; viability, T/C (compound 0.949 µM): 8.67% and 9.93% and 16.6%; viability, T/C (compound 3 µM): 2.53% and 1.43% and 6.14%; IC50 (curve of compound): 442 nM and 228 nM and 544 nM
